Experiments:
[1] = target: ERK1 (Homo sapiens, UniProt P27361); assay: ERK1 and 2 Enzymatic Inhibition Assay (ERK1); assay type: biochemical; conditions: 10 assay concentrations 2×10^−6 M to 6×10^−11 M, 1% DMSO
Description: (§1) ERK1 and 2 Enzymatic Inhibition Assay
(§2) For the Ki determination assay, 200 μM stock solutions of compounds were subjected to a serial, semi-logarithmic dilution using 100% DMSO as a solvent. 10 distinct concentrations were prepared, with a dilution endpoint of 6×10^−9 M in 100% DMSO. 100% DMSO was used as a control. 10 μL from each of the serial dilutions were aliquoted into separate wells of a 96-well plate and 90 μL of water were added to each of those wells. The plate was shaken thoroughly, and 5 μL from each of the plate's wells were transferred into wells of the assay plate. The final volume of wells in the assay plate was 50 μL. All compounds were tested at 10 assay concentrations in the range from 2×10^−6 M to 6×10^−11 M. The final DMSO concentration in the wells of the assay plate was 1% in all cases.

[2] = system: drug-sensitive cell lines of Table 4; assay: Cell line growth retardation assay, average over sensitive cohort; assay type: cell-based, Human; conditions: Homo sapiens, 144 h; geometric mean of IC50s over sensitive cohort (Table 4); 6 days growth; read-out: AvgSens IC50
Description: (§3) Cell Line Growth Retardation Assay
(§4) Cells were seeded at densities of 1,000-5,000 cells per well in 48-well tissue culture plates. After a 24 h rest period, cells were treated with compound at 10 μM, 2 μM, 0.4 μM, 0.08 μM, 0.016 μM, and 0.0032 μM. A group of cells were treated with the vehicle in which the compound was prepared and served as a control. The cells were grown in the presence of compounds for 6 days and were counted on day 0 and day 6. All cell counting was performed using a Synentec Cellavista plate imager. […] Growth inhibition was calculated as a ratio of cell population doublings in the presence of compound versus the absence of compound. […] IC50 values for each compound were calculated by fitting curves to data points from each dose-response assay using the Proc NLIN function in SAS for Windows version 9.2 (SAS Institute, Inc.).
(§5) Designation of Sensitivity and Resistant Cohorts and Calculation of Average IC50 Values
(§6) Human cancer cell lines were grouped as “sensitive” or “resistant” to ERK1 inhibition based on whether their growth was retarded by KO-947 (i.e., 1,5,6,8-tetrahydro-6-(phenylmethyl)-3-(4-pyridinyl)-7H-pyrazolo[4,3-g]quinazolin-7-one) and SCH772984 (i.e., (3R)-1-[2-oxo-2-[4-[4-(2-pyrimidinyl)phenyl]-1-piperazinyl]ethyl]-N-[3-(4-pyridinyl)-1H-indazol-5-yl]-3-pyrrolidinecarboxamide) (data not shown; see Table 4). These sensitive and resistant cohorts were interrogated for response to each compound, and IC50s were calculated for each cell line using the same technique described above. Average IC50s for the sensitive and resistant cohorts were calculated as geometric means of the group.

[3] = target: ERK2 (Homo sapiens, UniProt P28482); assay: ERK1 and 2 Enzymatic Inhibition Assay (ERK2); assay type: biochemical; conditions: 10 assay concentrations 2×10^−6 M to 6×10^−11 M, 1% DMSO
Description: as §1, §2

[4] = system: drug-resistant cell lines of Table 4; assay: Cell line growth retardation assay, average over resistant cohort; assay type: cell-based, Human; conditions: Homo sapiens, 144 h; geometric mean of IC50s over resistant cohort (Table 4); 6 days growth; read-out: AvgRes IC50
Description: as §3, §4, §5, §6

Sequence of ERK1 (P27361 whole entry): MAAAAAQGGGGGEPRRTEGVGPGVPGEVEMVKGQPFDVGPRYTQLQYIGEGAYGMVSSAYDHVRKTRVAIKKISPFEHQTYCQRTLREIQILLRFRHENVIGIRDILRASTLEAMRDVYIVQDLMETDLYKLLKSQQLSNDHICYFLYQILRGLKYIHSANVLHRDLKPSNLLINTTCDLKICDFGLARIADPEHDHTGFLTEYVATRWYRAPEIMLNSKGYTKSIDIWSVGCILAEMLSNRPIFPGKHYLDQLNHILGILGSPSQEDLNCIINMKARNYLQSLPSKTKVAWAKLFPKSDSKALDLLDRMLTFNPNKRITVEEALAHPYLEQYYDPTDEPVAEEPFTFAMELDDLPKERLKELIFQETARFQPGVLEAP
Sequence of ERK2 (P28482 whole entry): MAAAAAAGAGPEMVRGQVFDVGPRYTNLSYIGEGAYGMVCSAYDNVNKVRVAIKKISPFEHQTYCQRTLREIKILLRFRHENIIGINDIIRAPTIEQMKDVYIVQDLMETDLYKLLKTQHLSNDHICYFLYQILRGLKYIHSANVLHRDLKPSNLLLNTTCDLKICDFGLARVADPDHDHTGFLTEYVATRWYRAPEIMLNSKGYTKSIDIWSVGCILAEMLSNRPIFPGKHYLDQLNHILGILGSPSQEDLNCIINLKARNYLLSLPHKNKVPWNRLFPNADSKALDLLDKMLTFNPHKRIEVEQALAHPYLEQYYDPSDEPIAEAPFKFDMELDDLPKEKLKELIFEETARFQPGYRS

C[C@@H](NC(=O)c1ncc(-c2c[nH]c3ncc(N4CCOCC4)cc23)cn1)c1cccc(C(F)(F)F)c1 [Compound 21, (R)-5-(5-morpholino-1H-pyrrolo[2,3-b]pyridin-3-yl)-N-(1-(3-(trifluoromethyl)phenyl)ethyl)pyrimidine-2-carboxamide]
Kd [1]: ≤ 10 nM
IC50 [2]: 251 to 500 nM
Kd [3]: 11 to 100 nM
IC50 [4]: > 500 nM

CC(NC(=O)c1ncc(-c2c[nH]c3ncc(N4C[C@@H](C)O[C@@H](C)C4)cc23)cn1)c1ccccc1 (stereo in doubt) [Compound 36, 5-(5-((2R,6S)-2,6-dimethylmorpholino)-1H-pyrrolo[2,3-b]pyridin-3-yl)-N—((R)-1-phenylethyl)pyrimidine-2-carboxamide]
Kd [1]: ≤ 10 nM
IC50 [2]: > 500 nM
Kd [3]: 11 to 100 nM
IC50 [4]: > 500 nM

O=C(c1ncc(-c2c[nH]c3ncc(N4CCOCC4)cc23)cn1)N1CCC[C@H]1c1ccccc1 [Compound 19, (S)-(5-(5-morpholino-1H-pyrrolo[2,3-b]pyridin-3-yl)pyrimidin-2-yl)(2-phenylpyrrolidin-1-yl)methanone]
Kd [1]: > 100 nM
IC50 [2]: > 500 nM
Kd [3]: > 100 nM
IC50 [4]: > 500 nM

CN(C)CC(NC(=O)c1ncc(-c2c[nH]c3ncc(N4CCOCC4)cc23)cn1)c1ccccc1 (stereo in doubt) [Compound 57, (S)—N-(2-(dimethylamino)-1-phenylethyl)-5-(5-morpholino-1H-pyrrolo[2,3-b]pyridin-3-yl)pyrimidine-2-carboxamide]
Kd [1]: > 100 nM
IC50 [2]: > 500 nM
Kd [3]: > 100 nM
IC50 [4]: > 500 nM

CC(NC(=O)c1ncc(-c2c[nH]c3ncc(N4CCOC(C)(C)C4)cc23)cn1)c1ccccc1 (stereo in doubt) [Compound 38, (R)-5-(5-(2,2-dimethylmorpholino)-1H-pyrrolo[2,3-b]pyridin-3-yl)-N-(1-phenylethyl)pyrimidine-2-carboxamide]
Kd [1]: 11 to 100 nM
IC50 [2]: > 500 nM
Kd [3]: 11 to 100 nM
IC50 [4]: > 500 nM

C[C@H](NC(=O)c1ncc(-c2c[nH]c3ncc(N4CCOCC4)cc23)cn1)c1ccccc1Cl [Compound 45, (S)—N-(1-(2-chlorophenyl)ethyl)-5-(5-morpholino-1H-pyrrolo[2,3-b]pyridin-3-yl)pyrimidine-2-carboxamide]
Kd [1]: ≤ 10 nM
IC50 [2]: ≤ 250 nM
Kd [3]: ≤ 10 nM
IC50 [4]: > 500 nM

O=C(c1ncc(-c2c[nH]c3ncc(N4CCOCC4)cc23)cn1)N1CCC[C@@H]1c1ccccc1 [Compound 18, (R)-(5-(5-morpholino-1H-pyrrolo[2,3-b]pyridin-3-yl)pyrimidin-2-yl)(2-phenylpyrrolidin-1-yl)methanone]
Kd [1]: 11 to 100 nM
IC50 [2]: > 500 nM
Kd [3]: 11 to 100 nM
IC50 [4]: > 500 nM

CC(NC(=O)c1ncc(-c2c[nH]c3ncc(N4CCO[C@@H](C)C4)cc23)cn1)c1ccccc1 (stereo in doubt) [Compound 37, 5-(5-((S)-2-methylmorpholino)-1H-pyrrolo[2,3-b]pyridin-3-yl)-N—((R)-1-phenylethyl)pyrimidine-2-carboxamide]
Kd [1]: ≤ 10 nM
IC50 [2]: > 500 nM
Kd [3]: 11 to 100 nM
IC50 [4]: > 500 nM

C[C@H](c1ccccc1)N(C)C(=O)c1ncc(-c2c[nH]c3ncc(N4CCOCC4)cc23)cn1 [Compound 17]
Kd [1]: 11 to 100 nM
IC50 [2]: > 500 nM
Kd [3]: 11 to 100 nM
IC50 [4]: > 500 nM

O=C(NCCc1ccccc1Cl)c1ncc(-c2c[nH]c3ncc(N4CCOCC4)cc23)cn1 [Compound 61, N-(2-chlorophenethyl)-5-(5-morpholino-1H-pyrrolo[2,3-b]pyridin-3-yl)pyrimidine-2-carboxamide]
Kd [1]: ≤ 10 nM
IC50 [2]: 251 to 500 nM
Kd [3]: ≤ 10 nM
IC50 [4]: > 500 nM

c1ccc([C@H]2CN=C(c3ncc(-c4c[nH]c5ncc(N6CCOCC6)cc45)cn3)N2)cc1 [Compound 15, (S)-4-(3-(2-(5-phenyl-4,5-dihydro-1H-imidazol-2-yl)pyrimidin-5-yl)-1H-pyrrolo[2,3-b]pyridin-5-yl)morpholine]
Kd [1]: 11 to 100 nM
IC50 [2]: > 500 nM
Kd [3]: 11 to 100 nM
IC50 [4]: > 500 nM

C[C@H](CNC(=O)c1ncc(-c2c[nH]c3ncc(N4CCOCC4)cc23)cn1)c1ccccc1 [Compound 32]
Kd [1]: ≤ 10 nM
IC50 [2]: 251 to 500 nM
Kd [3]: ≤ 10 nM
IC50 [4]: > 500 nM

Cc1ccccc1CCNC(=O)c1ncc(-c2c[nH]c3ncc(N4CCOCC4)cc23)cn1 [Compound 65, N-(2-methylphenethyl)-5-(5-morpholino-1H-pyrrolo[2,3-b]pyridin-3-yl)pyrimidine-2-carboxamide]
Kd [1]: ≤ 10 nM
IC50 [2]: ≤ 250 nM
Kd [3]: ≤ 10 nM
IC50 [4]: > 500 nM

O=C(NCc1ccccc1)c1ncc(-c2c[nH]c3ncc(N4CCOCC4)cc23)cn1 [Compound 7, N-benzyl-5-(5-morpholino-1H-pyrrolo[2,3-b]pyridin-3-yl)pyrimidine-2-carboxamide]
Kd [1]: ≤ 10 nM
IC50 [2]: > 500 nM
Kd [3]: 11 to 100 nM
IC50 [4]: > 500 nM

C[C@H](NC(=O)c1ncc(-c2c[nH]c3ncc(N4CCOCC4)cc23)cn1)c1ccccc1F [Compound 44, (S)—N-(1-(2-fluorophenyl)ethyl)-5-(5-morpholino-1H-pyrrolo[2,3-b]pyridin-3-yl)pyrimidine-2-carboxamide]
Kd [1]: ≤ 10 nM
IC50 [2]: ≤ 250 nM
Kd [3]: ≤ 10 nM
IC50 [4]: > 500 nM

CC(NC(=O)c1ncc(-c2c[nH]c3ncc(N4CC5(COC5)C4)cc23)cn1)c1ccccc1 (stereo in doubt) [Compound 42, (R)-5-(5-(2-oxa-6-azaspiro[3.3]heptan-6-yl)-1H-pyrrolo[2,3-b]pyridin-3-yl)-N-(1-phenylethyl)pyrimidine-2-carboxamide]
Kd [1]: ≤ 10 nM
IC50 [2]: > 500 nM
Kd [3]: ≤ 10 nM
IC50 [4]: > 500 nM

C[C@H]1N=C(c2ncc(-c3c[nH]c4ncc(N5CCOCC5)cc34)cn2)O[C@H]1c1ccccc1 [Compound 56, 4-(3-(2-((4R,5S)-4-methyl-5-phenyl-4,5-dihydrooxazol-2-yl)pyrimidin-5-yl)-1H-pyrrolo[2,3-b]pyridin-5-yl)morpholine]
Kd [1]: 11 to 100 nM
IC50 [2]: > 500 nM
Kd [3]: 11 to 100 nM
IC50 [4]: > 500 nM

O=C(NCCc1ccc(F)cc1)c1ncc(-c2c[nH]c3ncc(N4CCOCC4)cc23)cn1 [Compound 62, N-(4-fluorophenethyl)-5-(5-morpholino-1H-pyrrolo[2,3-b]pyridin-3-yl)pyrimidine-2-carboxamide]
Kd [1]: ≤ 10 nM
IC50 [2]: > 500 nM
Kd [3]: 11 to 100 nM
IC50 [4]: > 500 nM

O=C(NCCc1ccccc1)c1ccc(-c2c[nH]c3ncc(N4CCOCC4)cc23)nn1 [Compound 13, 6-(5-morpholino-1H-pyrrolo[2,3-b]pyridin-3-yl)-N-phenethylpyridazine-3-carboxamide]
Kd [1]: 11 to 100 nM
IC50 [2]: > 500 nM
Kd [3]: > 100 nM
IC50 [4]: > 500 nM

COc1ccccc1[C@H](C)NC(=O)c1ncc(-c2c[nH]c3ncc(N4CCOCC4)cc23)cn1 [Compound 46, (S)—N-(1-(2-methoxyphenyl)ethyl)-5-(5-morpholino-1H-pyrrolo[2,3-b]pyridin-3-yl)pyrimidine-2-carboxamide]
Kd [1]: ≤ 10 nM
IC50 [2]: 251 to 500 nM
Kd [3]: ≤ 10 nM
IC50 [4]: > 500 nM

Cc1cc(-c2cnc3[nH]cc(-c4cnc(C(=O)NC(C)c5ccccc5)nc4)c3c2)ccn1 (stereo in doubt) [Compound 40, (R)-5-(5-(2-methylpyridin-4-yl)-1H-pyrrolo[2,3-b]pyridin-3-yl)-N-(1-phenylethyl)pyrimidine-2-carboxamide]
Kd [1]: ≤ 10 nM
IC50 [2]: ≤ 250 nM
Kd [3]: ≤ 10 nM
IC50 [4]: > 500 nM

O=C(NC(CO)c1ccccc1)c1ncc(-c2c[nH]c3ncc(N4CCOCC4)cc23)cn1 (stereo in doubt) [Compound 53, (S)—N-(2-hydroxy-1-phenylethyl)-5-(5-morpholino-1H-pyrrolo[2,3-b]pyridin-3-yl)pyrimidine-2-carboxamide]
Kd [1]: ≤ 10 nM
IC50 [2]: > 500 nM
Kd [3]: ≤ 10 nM
IC50 [4]: > 500 nM

— patent publication US12428416B2 (California Institute of Technology, priority 2018, dated 2025)
